Results reported in PubChem BioAssay AID179 (DTP/NCI, 2004).
“And” between values parts separate entries of the source, which are not always exact repeats. Equal entries are not always repeated. The source made the active and inactive calls.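 How the source made its calls: active means compounds giving half or more protection of infected cells from virus-caused growth loss, again on retest; inactive means the rest.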 Where a SMILES comes first, the peptide text is derived from it.

Tested on: CEM cells HIV-1 protection, formazan growth assay
Assay: NCI AIDS Antiviral Assay
Conditions: for IC50: measured here: growth of uninfected CEM cells
In short: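 Soluble formazan readout of cell growth; CEM cells ± HIV-1; 5 drug concs. ≥50% protection → retest; ≥50% again = moderately active; reproducible 100% = confirmed active.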

Row | Structure (SMILES) | EC50 [µM] | IC50 | outcome
1 | N#Cc1nc(/C=C/c2ccccc2)oc1N | > 501 | 112 µM | –
2 | COC(=O)C=C(c1cc(Cl)c(OC)c(C(=O)OC)c1)c1cc(Cl)c(OC)c(C(=O)OC)c1 | > 200 | 17.8 µM | –
3 | C[N+]12CCCc3cc(CO)cc(c31)CCC2 | 112 | 603 µM | –
4 | NC(C/[N+]([O-])=N/O)C(=O)O (centres undefined) | > 11 | 2.4 µM | –
5 | CC(C)N1CCCOC(c2ccc([N+](=O)[O-])cc2)O1 (centres undefined) | > 200 | 112 µM | –
6 | O=S(=O)(C=C=CCO)c1ccccc1 | – | – | inactive
7 | COC1(OC)C2(Cl)CCC1(Cl)C(OC(C)=O)C2 (centres undefined) | > 200 | 145 µM | –
8 | CN(CCNC(=O)c1cc(-c2ccccc2)nc2ccccc12)CCNC(=O)c1cc(-c2ccccc2)nc2ccccc12 | > 20 | 10.5 µM | –
9 | OC(c1ccccc1)c1cccc(C(O)c2ccccc2)c1 (centres undefined) | > 123 | > 123 µM | –
10 | O=C1CC(c2ccc(Cl)cc2)NC(=O)N1CCN1CCCC1 (centres undefined) | > 200 | > 200 µM | –
11 | COc1ccc(-n2[nH]c3c(cnc4ccccc43)c2=O)cc1 | > 200 | > 200 µM | –
12 | O=C1CC2(CCC(O)(c3cccs3)C(C(=O)c3cccs3)C2)C(=O)c2ccccc2N1 (centres undefined) | > 200 | > 200 µM | –
13 | O=[N+]([O-])c1cc(Cl)ccc1Sc1ccccc1 | – | – | inactive
14 | CC[C@H](CCCC[C@H]1CC[C@@H]2CC(=O)C[C@H]12)OC | > 200 | 117 µM | –
15 | CCc1cccc(C(C)C)c1NC(=O)CC1Sc2ccccc2NC1=O (centres undefined) | > 97.7 | 52.5 µM | –
16 | CCOC(=O)CC1=NC(C)(C)CC(C)O1 (centres undefined) | > 200 | > 200 µM | –
17 | O=C(CCc1ccc(O)cc1)NCCc1cccc(O)c1 | 43.7 | > 100 µM | –
18 | Clc1nssc1=Nc1nonc1-c1ccccc1 | > 200 | 5.5 µM | –
19 | CC1(C)OCC[C@@H]1[Si](C)(C)C | – | – | inactive
20 | CCCCC(Sc1cc(Cl)c(C)cc1S(=O)(=O)Nc1n[nH]c(N)n1)C(=O)OC (centres undefined) | > 200 | > 100 µM | –

Row | Structure (SMILES) | EC50 [µM] | IC50 | outcome
21 | Cc1cc(NS(=O)(=O)c2ccc(Nc3c4ccccc4nc4ccc(C(=O)Nc5ccc(S(N)(=O)=O)cc5)cc34)cc2)no1 | > 200 | 110 µM | –
22 | CC(=O)OCc1cc(-c2nc3ccccc3[nH]c2=O)nn1-c1ccc(Cl)cc1 | > 200 | > 200 µM | –
23 | BrCc1ccc2ccc3ccc(CBr)nc3c2n1 | > 200 | 3.72 µM | –
24 | CC(=O)OC12c3ccccc3C(c3ccccc31)C1C(=O)N(N=C(C)C)C(=O)C12 (centres undefined) | > 200 | > 200 µM | –
25 | O=C(NI1OC(=O)c2ccccc21)c1ccc(Cl)cc1 | > 151 | 85.1 µM | –
26 | CCOC(=O)C1Cc2[nH]c3ccccc3c2C(C)C1C (centres undefined) | > 95.5 | 49 µM | –
27 | C1C2OC2C2C1C1CC2C2OC12 (centres undefined) | > 1510 | > 1510 µM | –
28 | NC(CCOCCP(=O)(O)CCOCCC(N)C(=O)O)C(=O)O (centres undefined) | > 200 | > 200 µM | –
29 | COc1ccc(CCCCl)c(C2=NCCc3ccccc32)c1 | > 200 | 7.08 µM | –
30 | CC(C)=CC(=O)C/C(=N\NC(N)=S)C(=O)Nc1ccc(Cl)cc1 | > 37.2 | > 37.2 µM | –
31 | CC1(C)NN=C(SCc2ccccc2)NC1=O | 40.7 | 145 µM | –
32 | C[C@]12CC[C@H](OC(=O)CCC(=O)O)CC1=CC[C@@H]1C2CC[C@@]2(C)C1CC[C@@H]2c1ncc(-c2ccccc2)s1 (some centres undefined) | > 9.33 | > 9.33 µM | –
33 | Nn1c(CCCCCCCCc2nnc(COc3ccc(Cl)cc3)n2N)nnc1COc1ccc(Cl)cc1 | > 200 | 85.1 µM | –
34 | Cc1ccc(C2=C(c3ccc(C)cc3)C(c3ccc(C)cc3)=C(c3ccc(C)cc3)C2=O)cc1 | > 16.2 | > 16.2 µM | –
35 | CCOC(=O)Cc1csc2[n+]1C(=O)/C(=C\c1cccc(Cl)c1Cl)S2 | > 200 | 21.4 µM | –
36 | CC(C)CC(NC(=O)C(CC(=O)O)NC(=O)C(CO)NC(=O)C(CCCCN)NC(=O)C1CCCN1C(=O)C(CC(C)C)NC(=O)C(CO)NC(=O)CNC(=O)C(N)CCC(=O)O)C(=O)NC(CCCN=C(N)N)C(=O)O (centres undefined) (H-EGSLPKSDLR-OH; configuration not given here) | > 56.2 | > 56.2 µM | –
37 | CCCS(=N)(=O)CCC(N)C(=O)O (centres undefined) | > 200 | > 200 µM | –
38 | O=C(O)CCSCc1cc(C(=O)Nc2ccc(/C=C/c3ccc(NC(=O)c4cc(CSCCC(=O)O)c5cccnc5c4O)cc3S(=O)(=O)O)c(S(=O)(=O)O)c2)c(O)c2ncccc12 | 1.51 | 33.9 µM | –
39 | CCCCC[C@@H]1CCCC2N=C(CCCCC3OCCO3)CCC21 (some centres undefined) | – | – | inactive
40 | S=C(N/N=C(\C(=N/NC(=S)N1CCCCC1)c1ccccn1)c1ccccn1)N1CCCCC1 | > 200 | 39.8 µM | –

Row | Structure (SMILES) | EC50 [µM] | IC50 | outcome
41 | Cc1noc(C)c1-n1nc2ccc3nonc3c2n1 | > 200 | > 200 µM | –
42 | O=C(NCCCCNCCCNC(=O)c1cc(-c2ccccc2)nc2ccccc12)c1cc(-c2ccccc2)nc2ccccc12 | > 20 | 3.16 µM | –
43 | O=C1NC(N2CCCCC2)=N/C1=C\c1ccco1 | > 200 | > 200 µM | –
44 | CCC1(N)C(=O)OCc2c1cc1n(c2=O)Cc2cc3ccccc3nc2-1 (centres undefined) | > 200 | 0.813 µM | –
45 | CC(=O)NNc1nc(C)c(C(=O)NNC(=O)C(=O)Nc2nc3ccc([N+](=O)[O-])cc3s2)s1 | > 141 | 33.1 µM | –
46 | COC(=O)c1c(CC(Cc2ccc3c(c2)CCCC3)C(=O)O)ccc2c1CCCC2 (centres undefined) | > 200 | 58.9 µM | –
47 | O=C(NCCN1CCOCC1)c1ccc(I)cc1 | > 200 | > 200 µM | –
48 | CSC1NC(c2ccc(Cl)cc2)=C(C#N)C(=O)N1C1OCC(OC(C)=O)C(OC(C)=O)C1OC(C)=O (centres undefined) | > 200 | 30.9 µM | –
49 | CNC1C(OC2C(OC3C(O)C(O)C(O)C(O)C3O)OC(C)C2(O)CO)OC(CO)C(O)C1O (centres undefined) (tested in a mixture with another compound) | – | – | inactive
50 | O=C1NC(=NC2CCCCC2)C2(CCN(CCCC3(c4ccc(F)cc4)OCCO3)CC2)N1c1ccccc1 | > 200 | 102 µM | –
51 | CC(=O)Oc1ccc(C2(c3ccc(OC(C)=O)cc3)C(=O)Nc3ccccc32)cc1 | > 200 | 35.5 µM and 36.3 µM | –
52 | Cc1cn(C2CCN(CC3COC(C)(C)O3)O2)c(=O)[nH]c1=O (centres undefined) | > 200 | > 200 µM | –
53 | COC1/C=C/OC2(C)Oc3c(C)c(O)c4c(O)c(c(/C=N/Nc5ncccn5)c(O)c4c3C2=O)NC(=O)C(C)=C/C=C/C(C)C(O)C(C)C(O)C(C)C(OC(C)=O)C1C (centres undefined) | > 151 | 9.12 µM | –
54 | Clc1ccccc1C1SCc2nc3ncccc3n21 (centres undefined) | > 91.2 | 67.6 µM | –
55 | CC1=NN(c2ccc(S(=O)(=O)O)cc2)/C(=N/NC(N)=S)C1 | > 759 | 427 µM | –
56 | O=C(O)CN1CCN2CCCCCCCCN(CC1)CCN(CC(=O)O)CC2 | > 200 | 13.2 µM | –
57 | COC(=O)[C@H](Cc1ccccc1)NP(=O)(OC)OCC1OC(n2cc(C)c(=O)[nH]c2=O)CC1N=[N+]=[N-] (some centres undefined) | 83.2 | > 200 µM | –
58 | Cc1[nH]c2cc([N+](=O)[O-])ccc2c1[N+](=O)[O-] | – | – | inactive
59 | CCSc1ccc(/C=C(\C#N)c2ccc(OCCN(CC)CC)cc2)cc1 | > 100 | 1.2 µM | –
60 | O=S(=O)(c1ccc(F)cc1)c1ccc(F)cc1 | > 200 | > 200 µM | –
